The text below walks through data of patent publication US20220168427A1 (Ranok Therapeutics (Hangzhou) Co. Ltd., priority 2019, published 2022).

One data set concerns the target T1, BRD4 (BD1+BD2) (Homo sapiens, UniProt O60885).
T1 construct: 1.8 μg/ml recombinant BRD4 (BD1+BD2 domains) protein
Conditions: read-out: BRD4 Binding Potency. Here is the method:
A master mix was prepared with assay buffer, 1.8 μg/ml recombinant BRD4 (BD1+BD2 domains) protein, and 200-fold dilutions of Tb-labeled donor and dye-labeled acceptor. 40-fold dilutions of acetylated and non-acetylated ligands were prepared in 1×BRD TR-FRET assay buffer. Also, a serial 3-fold dilution of each compound was prepared ranging from 40 μM down until 2.0 nM. In a 384-well plate, 5 μl diluted ligand and 5 μl of compound dilution were added per well to duplicate wells and mixed by brief shaking. Then 10 μl of master mix was added per well, mixed by brief shaking, incubated at 25° C. for 2 hr and fluorescence was measured on an EnVision Plate Reader. The 665 nm/615 nm ratio was calculated from EnVision raw data. Data were normalized using whole-plate averages of “positive” and “negative” readings. A four-parameter “log[inhibitor] vs. response” curve was fitted using GraphPad Prism 7.0.

In a further data set the target is HSP90α (Homo sapiens, UniProt P07900). Briefly: HSP90α Binding Fluorescent Polarization (FP) Assay. Conditions: competition with FITC-geldanamycin; read-out: HSP90 Binding Potency. The method, then:
HSP90α Binding Fluorescent Polarization (FP) Assay
A master mix was prepared with assay buffer, BSA and FITC-geldanamycin. In a 96-well plate, a serial 3-fold dilution of each compound was prepared ranging from 40 μM down until 2.0 nM. Also in a 96-well plate, recombinant HSP90α protein was diluted to 28 μg/ml. Then, in a 384-well plate, 10 μl of master mix and 5 μl of compound dilution were added per well to duplicate wells and mixed by brief shaking. Then 5 μl of diluted HSP90α protein was added per well, mixed by brief shaking, incubated at 25° C. for 30, 60 and 120 min and fluorescence was measured on an EnVision Plate Reader. Background-subtracted mP values were calculated from EnVision raw data and a four-parameter “log[inhibitor] vs. response” curve was fitted using GraphPad Prism 7.0.

The next data set concerns MV4-11 cells. Briefly: MV4-11 Cell Cytotoxicity Assay. Format: cell-based, human. The note with it: human, MV4-11 cells, CCK-8. The source says:
% Inhibition=100−(D−B)/(S−B)*100%.
S: The absorbance of the maximum (cells with DMSO)
B: The absorbance of the minimum (medium with DMSO)

Molecules are shown by their SMILES. Counter-ions that a name gives are not always drawn.

For `Cc1sc2c(c1C)C(c1ccc(Cl)cc1)=N[C@@H](CC(=O)NCCOCCOCCOc1ccc(-n3c(S)nnc3-c3cc(C(C)C)c(O)cc3O)cc1)c1nnc(C)n1-2` [Compound 34, (S)-2-(4-(4-chlorophenyl)-2,3,9-trimethyl-6H-thieno[3,2-f][1,2,4]triazolo[4,3-a][1,4]diazepin-6-yl)-N-(2-(2-(2-(4-(3-(2,4-dihydroxy-5-isopropylphenyl)-5-mercapto-4H-1,2,4-triazol-4-yl)phenoxy)ethoxy)ethoxy)ethyl)acetamide], the IC50 at BRD4 (BD1+BD2) and on HSP90α was > 1000 nM each time. This compound also came in with an IC50 at 72 h in the data set with MV4-11 cells of 100 to 1000 nM.

Take `COc1cccc(-c2cc(C(=O)Nc3ccc(-c4ccc(OC5CCN(C)CC5)cc4OCCN(C)CC[C@@H]4N=C(c5ccc(Cl)cc5)c5c(sc(C)c5C)-n5c(C)nnc54)cc3)ccc2OC)c1` [Compound 135]: the IC50 on BRD4 (BD1+BD2) was 100 to 1000 nM; on HSP90α, > 1000 nM. Moreover, in the data set on MV4-11 cells, the IC50 at 72 h lay within 100 to 1000 nM.

Consider `CCc1cc(-c2nnc(C(N)=O)n2-c2ccc(CN3CCN(CC4CCN(C(=O)C[C@@H]5N=C(c6ccc(Cl)cc6)c6c(sc(C)c6C)-n6c(C)nnc65)CC4)CC3)cc2)c(O)cc1O` [Compound 121, (S)-4-(4-((4-((1-(2-(4-(4-chlorophenyl)-2,3,9-trimethyl-6H-thieno[3,2-f][1,2,4]triazolo[4,3-a][1,4]diazepin-6-yl)acetyl)piperidin-4-yl)methyl)piperazin-1-yl)methyl)phenyl)-5-(5-ethyl-2,4-dihydroxyphenyl)-4H-1,2,4-triazole-3-carboxamide hydrochloride], for which the IC50 on BRD4 (BD1+BD2) is > 1000 nM; on HSP90α it was < 100 nM.

In the case of `Cc1sc2c(c1C)C(c1ccc(Cl)cc1)=N[C@@H](CC(=O)N(C)[C@H](C)c1ccc(CN3CCC(Cc4ccc(-n5c(O)nnc5-c5cc(C(C)C)c(O)cc5O)cc4)CC3)cc1)c1nnc(C)n1-2` [Compound 93, 2-((S)-4-(4-chlorophenyl)-2,3,9-trimethyl-6H-thieno[3,2-f][1,2,4]triazolo[4,3-a][1,4]diazepin-6-yl)-N—((R)-1-(4-((4-(4-(3-(2,4-dihydroxy-5-isopropylphenyl)-5-hydroxy-4H-1,2,4-triazol-4-yl)benzyl)piperidin-1-yl)methyl)phenyl)ethyl)-N-methylacetamide, trifluoroacetic acid], the IC50 at BRD4 (BD1+BD2) and at HSP90α was 100 to 1000 nM each time. Also, in the data set with MV4-11 cells, the IC50 at 72 h is < 100 nM.

On to `Cc1sc2c(c1C)C(c1ccc(Cl)cc1)=N[C@@H](CC(=O)N1CCC(CN3CCN(Cc4ccc(-n5c(C(=O)NCCN6CCCCC6)nnc5-c5cc(C(C)C)c(O)cc5O)cc4)CC3)CC1)c1nnc(C)n1-2` [Compound 107, (S)-4-(4-((4-((1-(2-(4-(4-chlorophenyl)-2,3,9-trimethyl-6H-thieno[3,2-f][1,2,4]triazolo[4,3-a][1,4]diazepin-6-yl)acetyl)piperidin-4-yl)methyl)piperazin-1-yl)methyl)phenyl)-5-(2,4-dihydroxy-5-isopropylphenyl)-N-(2-(piperidin-1-yl)ethyl)-4H-1,2,4-triazole-3-carboxamide, trifluoroacetic acid], for which the IC50 at BRD4 (BD1+BD2) was < 100 nM; at HSP90α, 100 to 1000 nM. Besides, the IC50 at 72 h in the data set with MV4-11 cells was < 100 nM.

Consider `Cc1sc2c(c1C)C(c1ccc(Cl)cc1)=N[C@@H](CC(=O)NCC(=O)NCCOCCOc1ccc(-n3c(O)nnc3-c3cc(C(C)C)c(O)cc3O)cc1)c1nnc(C)n1-2` [Compound 55, (S)-2-(4-(4-chlorophenyl)-2,3,9-trimethyl-6H-thieno[3,2-f][1,2,4]triazolo[4,3-a][1,4]diazepin-6-yl)-N-(2-((2-(2-(4-(3-(2,4-dihydroxy-5-isopropylphenyl)-5-hydroxy-4H-1,2,4-triazol-4-yl)phenoxy)ethoxy)ethyl)amino)-2-oxoethyl)acetamide], for which the IC50 at BRD4 (BD1+BD2) and at HSP90α was 100 to 1000 nM each time. Further, the IC50 at 72 h in the data set with MV4-11 cells was in the range of 100 to 1000 nM.

Turning to `CCCc1cc(-c2nnc(O)n2-c2ccc(CN3CCN(CC4CCN(C(=O)C[C@@H]5N=C(c6ccc(Cl)cc6)c6c(sc(C)c6C)-n6c(C)nnc65)CC4)CC3)cc2)c(O)cc1O` [Compound 11, (S)-2-(4-(4-chlorophenyl)-2,3,9-trimethyl-6H-thieno[3,2-f][1,2,4]triazolo[4,3-a][1,4]diazepin-6-yl)-1-(4-((4-(4-(3-(2,4-dihydroxy-5-propylphenyl)-5-hydroxy-4H-1,2,4-triazol-4-yl)benzyl)piperazin-1-yl)methyl)piperidin-1-yl)ethan-1-one, trifluoroacetic acid], the IC50 is 100 to 1000 nM at BRD4 (BD1+BD2) and < 100 nM on HSP90α. The IC50 at 72 h in the data set on MV4-11 cells is < 100 nM.

`Cc1sc2c(c1C)C(c1ccc(Cl)cc1)=N[C@@H](CC(=O)N1CCC(CN3CCC(Cc4ccc(-n5c(C(=O)NCC(F)(F)F)nnc5-c5cc(C(C)C)c(O)cc5O)cc4)CC3)CC1)c1nnc(C)n1-2` [Compound 85, (S)-4-(4-((1-((1-(2-(4-(4-chlorophenyl)-2,3,9-trimethyl-6H-thieno[3,2-f][1,2,4]triazolo[4,3-a][1,4]diazepin-6-yl)acetyl)piperidin-4-yl)methyl)piperidin-4-yl)methyl)phenyl)-5-(2,4-dihydroxy-5-isopropylphenyl)-N-(2,2,2-trifluoroethyl)-4H-1,2,4-triazole-3-carboxamide, formic acid]: the IC50 on BRD4 (BD1+BD2) and at HSP90α was 100 to 1000 nM each time. Also, the IC50 at 72 h with MV4-11 cells was < 100 nM.

For `CCc1cc(-c2nnc(O)n2-c2ccc(CN3CCN(CC4CCN(C(=O)C[C@@H]5N=C(c6ccc(Cl)cc6)c6c(sc(C)c6C)-n6c(C)nnc65)CC4)CC3)cc2)c(O)cc1O` [Compound 1, 2-((6S)-4-(4-chlorophenyl)-2,3,9-trimethyl-6H-thieno[3,2-f][1,2,4]triazolo[4,3-a][1,4]diazepin-6-yl)-1-(4-((4-(4-(3-(5-ethyl-2,4-dihydroxyphenyl)-5-hydroxy-4H-1,2,4-triazol-4-yl)benzyl)piperazin-1-yl)methyl)piperidin-1-yl)ethanone], the IC50 on BRD4 (BD1+BD2) and on HSP90α was 100 to 1000 nM each time.

Regarding `CCNC(=O)c1noc(-c2cc(C(C)C)c(O)cc2O)c1-c1ccc(CN2CCN(CC3CCN(C(=O)C[C@@H]4N=C(c5ccc(Cl)cc5)c5c(sc(C)c5C)-n5c(C)nnc54)CC3)CC2)cc1` [Compound 16, 4-(4-((4-((1-(2-((6S)-4-(4-chlorophenyl)-2,3,9-trimethyl-6H-thieno[3,2-f][1,2,4]triazolo[4,3-a][1,4]diazepin-6-yl)acetyl)piperidin-4-yl)methyl)piperazin-1-yl)methyl)phenyl)-5-(2,4-dihydroxy-5-isopropylphenyl)-N-ethylisoxazole-3-carboxamide, trifluoroacetic acid], the IC50 on BRD4 (BD1+BD2) and on HSP90α was 100 to 1000 nM in each case.

Turning to `CCc1cc(-c2nnc(C(N)=O)n2-c2ccc(CN3CCN(CC4CCN(C(=O)C[C@@H]5N=C(c6ccc(Cl)cc6)c6c(sc(C)c6C)-n6c(C)nnc65)CC4)CC3)cc2)c(O)cc1O` [Compound 120, (S)-4-(4-((4-((1-(2-(4-(4-chlorophenyl)-2,3,9-trimethyl-6H-thieno[3,2-f][1,2,4]triazolo[4,3-a][1,4]diazepin-6-yl)acetyl)piperidin-4-yl)methyl)piperazin-1-yl)methyl)phenyl)-5-(5-ethyl-2,4-dihydroxyphenyl)-4H-1,2,4-triazole-3-carboxamide hydrochloride], the IC50 at BRD4 (BD1+BD2) is < 100 nM; at HSP90α, 100 to 1000 nM.

With `Cc1sc2c(c1C)C(c1ccc(Cl)cc1)=N[C@@H](CC(=O)NC(C)c1ccc(CN3CCC(Cc4ccc(-n5c(O)nnc5-c5cc(C(C)C)c(O)cc5O)cc4)CC3)cc1)c1nnc(C)n1-2` (stereo in doubt) [Compound 82, 2-((S)-4-(4-chlorophenyl)-2,3,9-trimethyl-6H-thieno[3,2-f][1,2,4]triazolo[4,3-a][1,4]diazepin-6-yl)-N—((R)-1-(4-((4-(4-(3-(2,4-dihydroxy-5-isopropylphenyl)-5-hydroxy-4H-1,2,4-triazol-4-yl)benzyl)piperidin-1-yl)methyl)phenyl)ethyl)acetamide hydrochloride], the IC50 at BRD4 (BD1+BD2) was < 100 nM. For the same compound, the IC50 at 72 h in the data set on MV4-11 cells was < 100 nM.

Regarding `Cc1sc2c(c1C)C(c1ccc(Cl)cc1)=N[C@@H](CC(=O)N1CCC(CN3CCN(Cc4ccc(-n5c(O)nnc5-c5cc(C(C)C)c(O)cc5O)cc4)CC3)CC1)c1nnc(C)n1-2` [Compound 40, 2-((6S)-4-(4-chlorophenyl)-2,3,9-trimethyl-6H-thieno[3,2-f][1,2,4]triazolo[4,3-a][1,4]diazepin-6-yl)-1-(4-((4-(4-(3-(2,4-dihydroxy-5-isopropylphenyl)-5-hydroxy-4H-1,2,4-triazol-4-yl)benzyl)piperazin-1-yl)methyl)piperidin-1-yl)ethanone, trifluoroacetic acid], the IC50 was 100 to 1000 nM at BRD4 (BD1+BD2) and < 100 nM on HSP90α.
